Each structure is given as a SMILES string. Read-outs that look alike come from different tables or passages of the source.

For assay [1], the target named is NDM-1 (Klebsiella pneumoniae, UniProt C7C422). Kind of assay: biochemical. The assay is classed as biochemical. The following applies: NDM-1 enzyme, CCF2-FA substrate; read-out: NDM-1 IC50.
For assay [2], the target named is IMP-1 (Serratia marcescens, UniProt P52699). Kind of assay: biochemical. The assay is classed as biochemical. As to conditions: IMP-1 enzyme, CCF2-FA substrate; read-out: IMP-1 IC50.
Chain of IMP-1 (P52699 whole entry, looked up): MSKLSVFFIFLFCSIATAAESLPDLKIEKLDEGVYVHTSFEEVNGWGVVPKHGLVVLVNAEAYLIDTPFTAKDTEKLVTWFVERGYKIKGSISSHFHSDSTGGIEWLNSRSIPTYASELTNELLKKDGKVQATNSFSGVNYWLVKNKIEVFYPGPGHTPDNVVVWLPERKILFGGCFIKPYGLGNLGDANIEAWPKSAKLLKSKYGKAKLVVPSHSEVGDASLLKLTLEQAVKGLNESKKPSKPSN
Assay [3] has as its target VIM-1 (Pseudomonas aeruginosa (strain ATCC 15692 / DSM 22644 / CIP 104116 / JCM 14847 / LMG 12228 / 1C / PRS 101 / PAO1), UniProt A0A0F7KYQ8). Kind of assay: Enzyme activity: determination of IC50, fluorescence assay with CCF2-FA substrate (VIM-1). The assay is classed as biochemical. The following applies: CCF2-FA substrate.
For assay [4], the system named is Escherichia coli expressing NDM-1 (CLB30016). Nature of the assay: Antibiotic potentiation activity: synergistic concentration (MITC95) with imipenem, OD600 growth. The format is cell-based. The following applies: (CLB30016, NDM-1), 95% growth inhibition. The procedure, abridged: (§1)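 Overnight colonies (35 °C) were suspended in saline, diluted 1:100 into 1.1× CAMHB, and exposed to test compound with imipenem at 4 μg/ml (optionally 1 μg/ml) in assay. After 22–24 h at 35 °C, growth was read by absorbance.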

Assay [5] relates to Klebsiella pneumoniae expressing VIM-1 (IHMA599644). The assay is described as above. The format is cell-based. As to conditions: Klebsiella pneumoniae IHMA599644 (VIM-1), 95% growth inhibition. The procedure, abridged:
as §1

Assay [6] relates to Serratia marcescens expressing IMP-1 (CL5741). The assay is described as above. The assay is classed as cell-based. The following applies: Serratia marcescens CL5741 (IMP-1), 95% growth inhibition. The procedure, abridged: as §1
The mark [7] stands for this setting: VIM-1 enzyme, read-out: VIM-1 IC50.

Chain of NDM-1 (C7C422 whole entry, looked up, species assumed): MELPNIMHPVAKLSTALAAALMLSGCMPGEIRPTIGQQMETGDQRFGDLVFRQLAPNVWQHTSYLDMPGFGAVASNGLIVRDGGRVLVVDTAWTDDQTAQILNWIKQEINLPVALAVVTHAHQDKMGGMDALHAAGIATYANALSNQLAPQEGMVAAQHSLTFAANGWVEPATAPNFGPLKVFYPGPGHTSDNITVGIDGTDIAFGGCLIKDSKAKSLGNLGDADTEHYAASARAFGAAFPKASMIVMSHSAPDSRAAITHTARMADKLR

Take `NC[C@H]1CC[C@@H](Cc2ccc(-c3ccc(N)nc3)c(-c3nnn[nH]3)c2S(N)(=O)=O)CC1` [Example 580, 6-(((1s,4s)-4-(aminomethyl)cyclohexyl)methyl)-3-(6-aminopyridin-3-yl)-2-(1H-tetrazol-5-yl)benzenesulfonamide]: the concentration for half-maximal inhibition (IC50) (in general, the midpoint of a concentration-inhibition curve) in assay [1] came out at 0.869 nM; in assay [2], 22.7 nM; in assay [3] (VIM-1 IC50, VIM-1 enzyme) it was 13.4 nM. Also, the “Escherichia coli MITC95” value in assay [4] was determined as 1.563 µM. Moreover, the “Klebsiella pneumoniae MITC95” value in assay [5] was determined as 12.5 µM. For the same compound, the “Serratia marcescens MITC95” value in assay [6] was determined as 6.25 µM.
As to `Nc1ccc(-c2ccc(CCC3CCNCC3)c(S(N)(=O)=O)c2-c2nnn[nH]2)cn1` [Example 581, 3-(6-aminopyridin-3-yl)-6-(2-(piperidin-4-yl)ethyl)-2-(1H-tetrazol-5-yl)benzenesulfonamide], the concentration for half-maximal inhibition (IC50) in assay [1] came out at 8.23 nM; in assay [2] it was 268 nM; in assay [3] (setting [7]) it was 36.8 nM. Moreover, the “Escherichia coli MITC95” value in assay [4] is 0.3906 µM. For the same compound, in assay [5], the “Klebsiella pneumoniae MITC95” value amounted to 12.5 µM. The “Serratia marcescens MITC95” value in assay [6] was 6.25 µM.
Turning to `NS(=O)(=O)c1c(C[C@H]2CC[C@H](N)CC2)ccc(-c2ccc(C3CCNC3)cc2)c1-c1nn[nH]n1` (stereo partly drawn) [Example 582, 4-(((1r,4r)-4-aminocyclohexyl)methyl)-4′-(pyrrolidin-3-yl)-2-(2H-tetrazol-5-yl)-[1,1′-biphenyl]-3-sulfonamide], the IC50 worked out at 3.99 nM in assay [1], 17.4 nM in assay [2] and 1.57 nM in assay [3] (setting [7]). For the same compound, the “Escherichia coli MITC95” value in assay [4] amounted to 0.7813 µM. For the same compound, the “Klebsiella pneumoniae MITC95” value in assay [5] was determined as 1.563 µM. Besides, the “Serratia marcescens MITC95” value in assay [6] was determined as 1.563 µM.
As to `NS(=O)(=O)c1c(C[C@H]2CC[C@@H](N)CC2)ccc(-c2ccc(C3CCNC3)cc2)c1-c1nnn[nH]1` (stereo partly drawn) [Example 583, 4-(((1s,4s)-4-aminocyclohexyl)methyl)-4′-(pyrrolidin-3-yl)-2-(1H-tetrazol-5-yl)-[1,1′-biphenyl]-3-sulfonamide], the IC50 in assay [1] amounted to 6.53 nM; in assay [2] it was 12 nM; in assay [3] (setting [7]), 23.6 nM. For the same compound, the “Escherichia coli MITC95” value in assay [4] worked out at 3.125 µM. The “Klebsiella pneumoniae MITC95” value in assay [5] worked out at 6.25 µM. Moreover, the “Serratia marcescens MITC95” value in assay [6] amounted to 6.25 µM.
Consider `NS(=O)(=O)c1c(CC[C@H]2CC[C@H](N)CC2)ccc(-c2ccc(C3CCNC3)cc2)c1-c1nnn[nH]1` (stereo partly drawn) [Example 584, 4-(2-((1r,4s)-4-aminocyclohexyl)ethyl)-4′-(pyrrolidin-3-yl)-2-(1H-tetrazol-5-yl)-[1,1′-biphenyl]-3-sulfonamide], for which the half-maximal inhibitory concentration (IC50) in assay [1] is 2.05 nM; in assay [2], 10.2 nM; in assay [3] (setting [7]) it was 1.61 nM. Also, in assay [4], the “Escherichia coli MITC95” value amounted to 1.563 µM. Moreover, the “Klebsiella pneumoniae MITC95” value in assay [5] came out at 6.25 µM. In assay [6], the “Serratia marcescens MITC95” value turned out to be 1.563 µM.
As to `NS(=O)(=O)c1c(CC[C@H]2CC[C@@H](N)CC2)ccc(-c2ccc(C3CCNC3)cc2)c1-c1nnn[nH]1` (stereo partly drawn) [Example 585, 4-(2-((1s,4r)-4-aminocyclohexyl)ethyl)-4′-(pyrrolidin-3-yl)-2-(1H-tetrazol-5-yl)-[1,1′-biphenyl]-3-sulfonamide], the half-inhibitory concentration (IC50) stood at 2.2 nM in assay [1], 17 nM in assay [2] and 4.58 nM in assay [3] (setting [7]). Besides, in assay [4], the “Escherichia coli MITC95” value came out at 0.7813 µM. In assay [5], the “Klebsiella pneumoniae MITC95” value came out at 6.25 µM. The “Serratia marcescens MITC95” value in assay [6] came out at 3.125 µM.
Take `NC[C@H]1CC[C@H](Cc2ccc(-c3ccc(C4CCNC4)cc3)c(-c3nnn[nH]3)c2S(N)(=O)=O)CC1` (stereo partly drawn) [Example 586, 4-(((1r,4r)-4-(aminomethyl)cyclohexyl)methyl)-4′-(pyrrolidin-3-yl)-2-(1H-tetrazol-5-yl)-[1,1′-biphenyl]-3-sulfonamide]: the IC50 came to 2.34 nM in assay [1], 7.14 nM in assay [2] and 1.16 nM in assay [3] (setting [7]). In addition, the “Escherichia coli MITC95” value in assay [4] worked out at 0.7813 µM. The “Klebsiella pneumoniae MITC95” value in assay [5] came to 1.563 µM. In assay [6], the “Serratia marcescens MITC95” value was 1.563 µM.
On to `NC[C@H]1CC[C@@H](Cc2ccc(-c3ccc(C4CCNC4)cc3)c(-c3nnn[nH]3)c2S(N)(=O)=O)CC1` (stereo partly drawn) [Example 587, 4-(((1s,4s)-4-(aminomethyl)cyclohexyl)methyl)-4′-(pyrrolidin-3-yl)-2-(1H-tetrazol-5-yl)-[1,1′-biphenyl]-3-sulfonamide], for which the results for the IC50 in assay [1], in assay [2] and in assay [3] (setting [7]) were 0.798 nM, 2.83 nM and 11.5 nM, respectively. In addition, the “Escherichia coli MITC95” value in assay [4] was found to be 0.7813 µM. In assay [5], the “Klebsiella pneumoniae MITC95” value came to 6.25 µM. Further, in assay [6], the “Serratia marcescens MITC95” value turned out to be 1.563 µM.
`NC[C@H]1CC[C@H](c2ccc(CC3CCNCC3)c(S(N)(=O)=O)c2-c2nn[nH]n2)CC1` [Example 589, 3-((1r,4r)-4-(aminomethyl)cyclohexyl)-6-(piperidin-4-ylmethyl)-2-(2H-tetrazol-5-yl)benzenesulfonamide]: the IC50 amounted to 8.75 nM in assay [1], 146 nM in assay [2] and 93.9 nM in assay [3] (setting [7]). Besides, the “Escherichia coli MITC95” value in assay [4] came to 1.172 µM. In assay [5], the “Klebsiella pneumoniae MITC95” value amounted to 9.375 µM. Moreover, in assay [6], the “Serratia marcescens MITC95” value turned out to be 4.688 µM.
Consider `NC[C@H]1CC[C@H](c2ccc(CC3CCNCC3)c(S(N)(=O)=O)c2-c2nn[nH]n2)CC1` [Example 590, 3-((1r,4r)-4-(aminomethyl)cyclohexyl)-6-(piperidin-4-ylmethyl)-2-(2H-tetrazol-5-yl)benzenesulfonamide], for which the figures for the half-inhibitory concentration (IC50) in assay [1], in assay [2] and in assay [3] (setting [7]) were 8.27 nM, 24.5 nM and 8.35 nM, respectively. Besides, the “Escherichia coli MITC95” value in assay [4] is 1.172 µM. Also, in assay [5], the “Klebsiella pneumoniae MITC95” value is 2.344 µM. In addition, the “Serratia marcescens MITC95” value in assay [6] was found to be 2.344 µM.
For the compound `NC[C@H]1CC[C@H](c2ccc(CCC3CCNCC3)c(S(N)(=O)=O)c2-c2nnn[nH]2)CC1` [Example 591, 3-((1r,4r)-4-(aminomethyl)cyclohexyl)-6-(2-(piperidin-4-yl)ethyl)-2-(1H-tetrazol-5-yl)benzenesulfonamide], the results for the IC50 in assay [1], in assay [2] and in assay [3] (setting [7]) were 16 nM, 320 nM and 574 nM, respectively. Also, the “Escherichia coli MITC95” value in assay [4] is 1.563 µM. Besides, the “Klebsiella pneumoniae MITC95” value in assay [5] is 25 µM. In assay [6], the “Serratia marcescens MITC95” value worked out at 6.25 µM.
In the case of `NC[C@H]1CC[C@@H](c2ccc(CCC3CCNCC3)c(S(N)(=O)=O)c2-c2nnn[nH]2)CC1` [Example 592, 3-((1s,4s)-4-(aminomethyl)cyclohexyl)-6-(2-(piperidin-4-yl)ethyl)-2-(1H-tetrazol-5-yl)benzenesulfonamide], the half-inhibitory concentration (IC50) in assay [1] is 8.6 nM; in assay [2], 84.1 nM; in assay [3] (setting [7]), 34.8 nM. Also, the “Escherichia coli MITC95” value in assay [4] came to 1.563 µM. In addition, the “Klebsiella pneumoniae MITC95” value in assay [5] was 12.5 µM. Further, the “Serratia marcescens MITC95” value in assay [6] was 3.125 µM.
`NCc1ccc(-c2ccc(CC3CCNCC3)c(S(N)(=O)=O)c2-c2nn[nH]n2)cc1` [Example 593, 4′-(aminomethyl)-4-(piperidin-4-ylmethyl)-2-(2H-tetrazol-5-yl)biphenyl-3-sulfonamide]: the IC50 in assay [1] was determined as 38.2 nM; in assay [2], 273 nM; in assay [3] (setting [7]) it was 31.6 nM. In assay [4], the “Escherichia coli MITC95” value is 1.563 µM. The “Klebsiella pneumoniae MITC95” value in assay [5] came out at 3.125 µM. Further, in assay [6], the “Serratia marcescens MITC95” value amounted to 6.25 µM.
As for `N=C(N)NCc1ccc(-c2ccc(CC3CCNCC3)c(S(N)(=O)=O)c2-c2nn[nH]n2)cc1` [Example 594, 4′-(guanidinomethyl)-4-(piperidin-4-ylmethyl)-2-(2H-tetrazol-5-yl)biphenyl-3-sulfonamide], the concentration for half-maximal inhibition (IC50) in assay [1] worked out at 13.4 nM; in assay [2] it was 51.7 nM; in assay [3] (setting [7]) it was 5.41 nM. The “Escherichia coli MITC95” value in assay [4] was determined as 0.7813 µM. The “Klebsiella pneumoniae MITC95” value in assay [5] was found to be 1.563 µM. For the same compound, the “Serratia marcescens MITC95” value in assay [6] amounted to 1.563 µM.
Turning to `NS(=O)(=O)c1c(C[C@H]2CC[C@H](N)CC2)ccc(-c2ccc(C3CNC3)cc2)c1-c1nn[nH]n1` [Example 595, 4-(((1r,4r)-4-aminocyclohexyl)methyl)-4′-(azetidin-3-yl)-2-(2H-tetrazol-5-yl)-[1,1′-biphenyl]-3-sulfonamide], the IC50 in assay [1] was 4.34 nM; in assay [2], 42.6 nM; in assay [3] (VIM-1 IC50, VIM-1 enzyme), 1.3 nM. The “Escherichia coli MITC95” value in assay [4] was 0.7813 µM. The “Klebsiella pneumoniae MITC95” value in assay [5] turned out to be 1.563 µM. Moreover, in assay [6], the “Serratia marcescens MITC95” value came out at 3.125 µM.
On to `NS(=O)(=O)c1c(C[C@H]2CC[C@@H](N)CC2)ccc(-c2ccc(C3CNC3)cc2)c1-c1nnn[nH]1` [Example 596, 4-(((1s,4s)-4-aminocyclohexyl)methyl)-4′-(azetidin-3-yl)-2-(1H-tetrazol-5-yl)-[1,1′-biphenyl]-3-sulfonamide], for which the 50% inhibitory concentration (IC50) was 4.38 nM in assay [1]; 10.6 nM in assay [2]; 7.46 nM in assay [3] (VIM-1 IC50, VIM-1 enzyme). For the same compound, the “Escherichia coli MITC95” value in assay [4] was determined as 0.7813 µM. Besides, the “Klebsiella pneumoniae MITC95” value in assay [5] was 1.563 µM. Also, in assay [6], the “Serratia marcescens MITC95” value worked out at 1.563 µM.

For the origin of these results see patent US9708336B2, “Metallo-beta-lactamase inhibitors” (priority 2014, dated 2017).
